Results from patent US9139568B2 (Merck Patent GmbH, priority 2011, dated 2015).
pIC50: −log10 of the molar value.

Tests used:
P70S6K = P70S6K (Homo sapiens (Human), UniProt P23443, T412E); assay: P70S6K Enzyme Assay; type: biochemical; settings: P70S6K T412E mutant, 24 μM ATP, mobility shift (Caliper)
Procedure: P70S6K inhibitor compounds are diluted and plated in 96 well plates. […] The reaction is incubated for 90 min at 25° C., before the addition of 10 mM EDTA to stop the reaction. The proportion of substrate and product (phosphorylated) peptide is analysed on a Caliper Life Sciences Lab Chip 3000, using a pressure of −1.4 psi, and upstream and downstream voltages of −3000 and −700 respectively. Product peaks are resolved before substrate peaks on the resulting chromatograms.

AKT = AKT (Homo sapiens (Human), UniProt P31749); assay: AKT Enyzme Assay; type: biochemical; settings: His-AKT (Full Length), 160 uM ATP, mobility shift (Caliper)
Procedure: A TTP Mosquito liquid handling instrument is used to place 125 nl of the appropriate concentration of inhibitor in 100% DMSO (for a dose response curve calculation) into each well of a 384-well plate.
The reaction is incubated for 90 min at 25 C, and then stopped by the addition of 70 μl of Stop buffer (100 mM HEPES pH 7.5, 0.015% Brij-35, 10 mM EDTA (Sigma, E7889)).
The plate is read on a Caliper LC 3000 in an Off-Chip mobility shift assay format, using the following parameters for a 12-sipper chip: screening pressure −2.3 psi, upstream voltage −500, and downstream voltage −3000. These conditions cause unphosphorylated substrate and phosphorylated product peptide to resolve as separate peaks allowing direct measurement of percentage of conversion of substrate to product. The percent conversion can be plotted against concentration of inhibitor to produce a sigmoidal dose response curve, from which an IC50 can be calculated.

Sequence of P70S6K (P23443 1-421 T412E): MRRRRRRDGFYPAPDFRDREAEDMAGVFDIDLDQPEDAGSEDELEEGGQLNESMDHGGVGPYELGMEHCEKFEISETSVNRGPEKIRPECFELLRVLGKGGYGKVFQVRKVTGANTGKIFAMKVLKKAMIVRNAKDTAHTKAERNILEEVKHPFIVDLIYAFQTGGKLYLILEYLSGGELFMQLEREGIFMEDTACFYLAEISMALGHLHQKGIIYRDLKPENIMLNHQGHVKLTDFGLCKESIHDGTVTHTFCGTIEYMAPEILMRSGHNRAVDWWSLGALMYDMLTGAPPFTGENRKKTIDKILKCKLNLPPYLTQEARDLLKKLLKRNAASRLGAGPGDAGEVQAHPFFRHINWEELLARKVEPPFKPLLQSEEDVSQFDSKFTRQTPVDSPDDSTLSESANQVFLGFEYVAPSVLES
Sequence of AKT (P31749 whole entry): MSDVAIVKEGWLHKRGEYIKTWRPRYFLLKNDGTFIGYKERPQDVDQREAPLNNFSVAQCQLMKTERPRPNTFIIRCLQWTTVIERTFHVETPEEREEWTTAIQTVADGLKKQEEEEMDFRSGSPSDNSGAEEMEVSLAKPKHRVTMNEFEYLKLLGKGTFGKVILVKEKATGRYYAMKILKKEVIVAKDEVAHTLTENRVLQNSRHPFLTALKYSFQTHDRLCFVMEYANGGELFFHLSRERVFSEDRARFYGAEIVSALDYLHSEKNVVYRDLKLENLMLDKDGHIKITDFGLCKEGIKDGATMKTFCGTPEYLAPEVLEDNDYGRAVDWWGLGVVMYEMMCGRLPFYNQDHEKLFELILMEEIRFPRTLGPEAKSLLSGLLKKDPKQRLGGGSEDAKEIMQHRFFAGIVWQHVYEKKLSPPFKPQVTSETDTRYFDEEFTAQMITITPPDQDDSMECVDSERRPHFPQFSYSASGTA

With NC(=O)c1ccc(N[C@@H]2CNCC[C@H]2c2ccc(F)cc2)c2cncnc12 (single isomer, unassigned) [Example 81] the pIC50 (P70S6K) was 7.28 and the pIC50 (AKT) was 6.05.
In the case of NC(=O)c1ccc(N2CCN(c3ccc(F)c(Cl)c3)CC2)c2cncnc12 [Example 94, 5-[4-(3-chloro-4-fluorophenyl)-piperazin-1-yl]-quinazoline-8-carboxylic acid amide], the pIC50 (P70S6K) was 4.92 and the pIC50 (AKT) was < 4.00.
Compound NC(=O)c1ccc(NCc2cccnc2)c2cncnc12 [Example 62, 5-((pyridin-3-ylmethyl)amino)quinazoline-8-carboxamide] has a pIC50 (P70S6K) of 5.80 and a pIC50 (AKT) of 4.15.
Work on CN(CCc1ccccc1)c1ccc(C(N)=O)c2ncncc12 [Example 103, 5-[methyl(phenethyl)amino]quinazoline-8-carboxamide] yielded a pIC50 (P70S6K) of 6.66 and a pIC50 (AKT) of 4.85.
In the case of NC(=O)c1ccc(NC2CNCC2c2cccc(OC(F)(F)F)c2)c2cncnc12 (stereo not drawn) [Example 72, 5-((4-(3-(trifluoromethoxy)phenyl)pyrrolidin-3-yl)amino)quinazoline-8-carboxamide], the pIC50 (P70S6K) was 7.00 and the pIC50 (AKT) was < 4.00.
Compound NC(=O)c1ccc(N2CCC(CCc3ccccc3)C2)c2cncnc12 (racemic) [Example 64, 5-(3-phenethylpyrrolidin-1-yl)quinazoline-8-carboxamide] has a pIC50 (P70S6K) of 6.62 and a pIC50 (AKT) of 5.51.
NC(=O)c1ccc(N(CCc2ccccc2)[C@@H]2CCCNC2)c2cncnc12 [Example 105, 5-[phenethyl-[(3R)-3-piperidyl]amino]quinazoline-8-carboxamide] was tested, and the pIC50 (P70S6K) was 4.96 and the pIC50 (AKT) was < 4.00.
For Cc1cccc(N2CCC(Nc3ccc(C(N)=O)c4ncncc34)CC2)c1 [Example 57, 5-((1-(m-tolyl)piperidin-4-yl)amino)quinazoline-8-carboxamide], the pIC50 (P70S6K) was 4.66 and the pIC50 (AKT) was < 4.00.
In the case of NC(=O)c1ccc(NC2CNCCC2c2ccc(Cl)c(F)c2)c2cncnc12 (stereo not drawn) [Example 75, 5-((4-(4-chloro-3-fluorophenyl)piperidin-3-yl)amino)quinazoline-8-carboxamide], the pIC50 (P70S6K) was 8.09 and the pIC50 (AKT) was 6.89.
NC(=O)c1ccc(NCCc2ccc(F)cc2)c2cncnc12 [Example 100, 5-[2-(4-fluorophenyl)ethylamino]quinazoline-8-carboxamide] was tested, and the pIC50 (P70S6K) was 6.54 and the pIC50 (AKT) was 5.32.
NC(=O)c1ccc(NC2CCNCC2c2ccc(F)cc2)c2cncnc12 (stereo not drawn) [Example 70, 5-((3-(4-fluorophenyl)piperidin-4-yl)amino)quinazoline-8-carboxamide] was tested, and the pIC50 (P70S6K) was 6.26 and the pIC50 (AKT) was 5.60.
CN(C)C(CNc1ccc(C(N)=O)c2ncncc12)c1cccc(Cl)c1 (racemic) [Example 68, 5-((2-(3-chlorophenyl)-2-(dimethylamino)ethyl)amino)quinazoline-8-carboxamide] was tested, and the pIC50 (P70S6K) was 5.59 and the pIC50 (AKT) was < 4.00.
NC(=O)c1ccc(NC2CNCCC2c2ccc(F)c(Cl)c2)c2cncnc12 (stereo not drawn) [Example 76, 5-((4-(3-chloro-4-fluorophenyl)piperidin-3-yl)amino)quinazoline-8-carboxamide] showed a pIC50 (P70S6K) of 7.48 and a pIC50 (AKT) of 6.24.
NC(=O)c1ccc(NCc2cccc(Cl)c2)c2cncnc12 [Example 63, 5-((3-chlorobenzyl)amino)quinazoline-8-carboxamide] gave a pIC50 (P70S6K) of 7.23 and a pIC50 (AKT) of 4.92.
NC(=O)c1ccc(N[C@@H]2CNCC[C@H]2c2ccc(F)c(Cl)c2)c2cncnc12 (single isomer, unassigned) [Example 78] was tested, and the pIC50 (P70S6K) was 6.46 and the pIC50 (AKT) was 5.24.
For NC(=O)c1ccc(N2CCC(O)(c3ccccc3)C2)c2cncnc12 (racemic) [Example 66, 5-(3-hydroxy-3-phenylpyrrolidin-1-yl)quinazoline-8-carboxamide], the pIC50 (P70S6K) was 5.74 and the pIC50 (AKT) was < 4.00.
With NC(=O)c1ccc(NC2CNCC2c2cccc(C(F)(F)F)c2)c2cncnc12 (stereo not drawn) [Example 71, 5-((4-(3-(trifluoromethyl)phenyl)pyrrolidin-3-yl)amino)quinazoline-8-carboxamide] the pIC50 (P70S6K) was 7.68 and the pIC50 (AKT) was 5.35.
Compound NC(=O)c1ccc(NC2CNCCC2c2ccc(F)cc2)c2cncnc12 (stereo not drawn) [Example 79, 5-((4-(4-fluorophenyl)piperidin-3-yl)amino)quinazoline-8-carboxamide] has a pIC50 (P70S6K) of 6.54 and a pIC50 (AKT) of 5.70.
NC(=O)c1ccc(N2CCN(c3cccc(C(F)(F)F)c3)CC2)c2cncnc12 [Example 109, 5-[4-(3-trifluoromethylphenyl)-piperazin-1-yl]-quinazoline-8-carboxylic acid amide] showed a pIC50 (P70S6K) of 4.96 and a pIC50 (AKT) of 4.64.
Cc1cccc(C2CCNCC2Nc2ccc(C(N)=O)c3ncncc23)c1 (stereo not drawn) [Example 73, 5-((4-(m-tolyl)piperidin-3-yl)amino)quinazoline-8-carboxamide] showed a pIC50 (P70S6K) of 6.41 and a pIC50 (AKT) of 5.05.
NC(=O)c1ccc(N2CCC(c3cccc(C(F)(F)F)c3)C(N)C2)c2cncnc12 (racemic) [Example 107, 5-[3-Amino-4-(3-trifluoromethyl-phenyl)-piperidin-1-yl]-quinazoline-8-carboxylic acid amide] showed a pIC50 (P70S6K) of 6.42 and a pIC50 (AKT) of 5.09.
With NC(=O)c1ccc(NC[C@@H]2CCNC2)c2cncnc12 [Example 60, (R)-5-((pyrrolidin-3-ylmethyl)amino)quinazoline-8-carboxamide] the pIC50 (P70S6K) was 5.32 and the pIC50 (AKT) was < 4.00.
With CN1CCC(Nc2ccc(C(N)=O)c3ncncc23)C1 (racemic) [Example 58, 5-((1-methylpyrrolidin-3-yl)amino)quinazoline-8-carboxamide] the pIC50 (P70S6K) was 4.70 and the pIC50 (AKT) was < 4.00.
With Cc1ccc(Cl)cc1N1CCN(c2ccc(C(N)=O)c3ncncc23)CC1 [Example 111, 5-[4-(5-chloro-2-methylphenyl)-piperazin-1-yl]-quinazoline-8-carboxylic acid amide] the pIC50 (P70S6K) was < 4.00 and the pIC50 (AKT) was < 4.00.
In the case of NC(=O)c1ccc(N2CCN(c3ccc(F)c(F)c3)CC2)c2cncnc12 [Example 92, 5-[4-(3,4-difluoro-phenyl)-piperazin-1-yl]-quinazoline-8-carboxylic acid amide], the pIC50 (P70S6K) was 6.00 and the pIC50 (AKT) was < 4.00.
For NC(=O)c1ccc(N2CCN(c3ccc(C(F)(F)F)cc3)CC2)c2cncnc12 [Example 90, 5-[4-(4-Trifluoromethyl-phenyl)-piperazin-1-yl]-quinazoline-8-carboxylic acid amide], the pIC50 (P70S6K) was 4.62 and the pIC50 (AKT) was < 4.00.
NC(=O)c1ccc(NCCc2cccc(F)c2)c2cncnc12 [Example 99, 5-[2-(3-fluorophenyl)ethylamino]quinazoline-8-carboxamide] showed a pIC50 (P70S6K) of 6.92 and a pIC50 (AKT) of 5.62.
